Results as given in patent US10344064B2, “Engineered potent cytotoxic stapled BH3 peptides” (The Trustees of Princeton University, priority 2012, dated 2019).
Entries after “also recorded” stand apart in the source; their conditions may differ. Like-named read-outs stand apart in the source and are kept apart here. Blank lines part the entries; values can stand above or below the compound they belong to. Bridges are numbered along the chain shown (N, C = ends). Where no end group is shown, it is not given here. [ ]: non-standard residue; d: D form. S5 = C=CCCC[C@](C)(N)C(=O)O

Tests used:
Bcl-xL = biological target: T1, Bcl-xL (Homo sapiens, UniProt Q07817); experiment: Apparent Kd by E. coli surface display and flow cytometry, Bcl-xL; format: binding; details: for increase in apparent affinity toward Bcl-xL: relative to wild-type Bim 14-mer; for binding to Bcl-xL (in words): compared with wild-type peptide
T1 construct: made in house; host or cells: E. coli BL21
Procedure: (§1) All binding assays were performed using MC1061 strain. Briefly, a 5 mL culture of a library sample or individual variant was grown to OD600˜0.6, and induced with arabinose (0.2%) at RT for 2.5 hours. Cells were pelleted (1 mL culture, 6000 rpm, 5 min) and resuspended in 1 mL PBS. A portion of the cell suspension (50 μL) was mixed with the desired concentration of pro-survival protein to a total volume of 500 μL. The mixture was allowed to rotate at room temperature for 1 hour for equilibrium binding. The cells were pelleted again (6000 rpm, 20 min), resuspended with 100 μL of 50 nM streptavidin-phycoerythrin (SAPE), and incubated on ice in the dark for 30 min. After a final centrifugation, the cell pellets were stored on ice and resuspended in 2 mL of PBS for flow cytometry measurements. A Partec CyFlow ML Flow Cytometer equipped with a 488 nm laser was used to analyze the cells. A FACSVantage SE cell sorter was used for cell sorting in single cell mode.
(§2) A two parameter model was used to extract apparent binding affinity (Kd) from flow cytometry binding experiments.

A1 = experiment: Apparent Kd by E. coli surface display and flow cytometry, A1; format: binding; details: for Kd: Table 3, apparent Kd, unstapled 14-mer displayed on E. coli (eCPX); for affinity improvement toward A1: relative to wild-type Bim 14-mer
Procedure: as §1, §2

HeLa cells [1] = format: cell-based, human
Procedure: (§3) HeLa, PC3, MCF7 and MDA231 cell lines were used to determine IC50 of each stapled peptide. All cells were cultured at 37° C. supplemented with 5% CO2. HeLa cells and PC3 cells were maintained in DMEM and RPMI 1640 media, respectively, supplemented with 10% FBS, 50 units/mL penicillin, and 50 μg/mL streptomycin. MCF7 cells were maintained in DME/F12 media with 2% FBS, 10 μg/ml insulin, and 50 μg/ml gentamicin. MDA-MB-231 cells were maintained in DME/F12 media supplemented with 10% FBS, 10 μg/ml insulin, and 50 μg/ml gentamicin. The cytotoxicity of stapled peptides was determined using an MTT (3-(4,5-Dimethylthiazol-2-yl)-2,5-diphenyltetrazolium bromide assay (Sigma). Cells were plated at a density of 1.5×10^4 cells per well in a 96-well plate. After 24 hours, the medium was replaced with serum-free medium containing stapled peptides. Serum was added after 4 hours, and cells were incubated for an additional 44 hours. After this incubation, 0.5 mg/ml of MTT was added to each well and incubated for 4 hours. The medium was aspirated and 200 μL of dimethyl sulfoxide (DMSO) was added to each well to solubilize the formazan crystals. The absorbance was measured at 570 nm with 690 nm as an internal reference using a GloMax-Multi Detection System (Promega). Experiments were performed three times independently with biological replicates. A four-parameter model was used to fit the experimental data and extract the IC50 value from killing assays, where log [ ] was the log value of the stapled peptide concentration. [formula] During fitting, “top” was always fixed at 100% viability, while “bottom,” log [IC50] and Hill slope were allowed to vary. In all cases, “bottom” came out to be 0. The R^2 values of all fits were above 0.9, while the majority was above 0.95.

MDA231 cells = format: cell-based, human
Procedure: as §3

PC3 cells = format: cell-based, human
Procedure: as §3

MCF7 cells = experiment: MTT cytotoxicity assay of stapled peptides, MCF7; format: cell-based, human; details: for cytotoxicity toward MCF7 cells (in words): stapled peptides, at the concentrations tested
Procedure: as §3

[2] = tested on: HeLa, PC3, MCF7 and MDA231 cell lines; experiment: MTT cytotoxicity assay of stapled peptides, all four cancer cell lines; format: cell-based, human; details: for cytotoxicity against the four cancer cell lines (in words): stapled pseudo-wild-type peptide
Procedure: as §3

HeLa = details: cisplatin, values from reference 33-36; cited from earlier work
PC3 = details: cisplatin, values from reference 33-36; cited from earlier work
MCF7 = details: cisplatin, values from reference 33-36; cited from earlier work
MDA231 = details: cisplatin, values from reference 33-36; cited from earlier work
Bcl-2 = biological target: T2, Bcl-2 (Homo sapiens, UniProt P10415); experiment: Apparent Kd by E. coli surface display and flow cytometry, Bcl-2; format: binding; details: compared with wild-type peptide
T2 construct: made in house; host or cells: E. coli BL21
Procedure: as §1, §2

Bcl-w = biological target: T3, Bcl-w (Homo sapiens, UniProt Q92843); experiment: Apparent Kd by E. coli surface display and flow cytometry, Bcl-w; format: binding; details: compared with wild-type peptide
T3 construct: made in house; host or cells: E. coli BL21
T3 sequence (Q92843 1-193): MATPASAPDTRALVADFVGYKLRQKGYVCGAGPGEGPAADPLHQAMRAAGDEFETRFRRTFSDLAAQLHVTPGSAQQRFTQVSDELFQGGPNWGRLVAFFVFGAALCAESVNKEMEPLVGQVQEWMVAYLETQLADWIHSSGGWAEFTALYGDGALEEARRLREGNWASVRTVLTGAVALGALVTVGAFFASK
Procedure: as §1, §2

Mcl-1 = biological target: T4, Mcl-1 (Homo sapiens, UniProt Q07820); experiment: Apparent Kd by E. coli surface display and flow cytometry, Mcl-1; format: binding
T4 construct: made in house; host or cells: E. coli BL21
Procedure: as §1, §2

HeLa cells [3] = experiment: Peptide uptake by fluorescence microscopy; format: cell-based, human; details: 5 μM, imaged after 2.5 hours
Procedure: (§4) To study the uptake of fluorescein-labeled M2-4 stapled peptide (Fl-M2-4), HeLa cells were cultured in DMEM with 10% FBS and antibiotics as described above. The peptide was added to a final concentration of 5 μM in fresh DMEM without serum supplementation. Cellular uptake of FI-M2-4 was visualized using a Hamamatsu Orca CCD camera attached to a Nikon Eclipse Ti microscope after 2.5 hours of incubation. Cells were fixed using 4% paraformaldehyde and counterstained with Hoechst 33342. For the TUNEL assay, HeLa cells were plated on a fibronectin-treated coverslip and incubated with 5 μM unlabeled M2-4 peptide for 5 hours. The cells were then fixed using 4% paraformaldehyde and permeabilized with 0.25% Triton X-100 in PBS. The TUNEL assay (Click-it Alexa-Fluor 594, Invitrogen) was carried out according to the manufacturer's recommendations including counterstaining cell nuclei with Hoechst 33342. Images were acquired using a Hamamatsu Orca CCD camera attached to a Nikon Eclipse Ti microscope. All images were processed with ImageJ software.

HeLa cells [4] = experiment: TUNEL assay; format: cell-based, human; details: 5 μM, 5 hours
Procedure: as §4

[5] = Table 2, apparent Kd, unstapled 14-mer displayed on E. coli (eCPX), read-out: Kd vs. Mcl-1
[6] = Table 3, apparent Kd, unstapled 14-mer displayed on E. coli (eCPX), read-out: Kd (nM) Mcl-1

T1 sequence (Q07817 whole entry): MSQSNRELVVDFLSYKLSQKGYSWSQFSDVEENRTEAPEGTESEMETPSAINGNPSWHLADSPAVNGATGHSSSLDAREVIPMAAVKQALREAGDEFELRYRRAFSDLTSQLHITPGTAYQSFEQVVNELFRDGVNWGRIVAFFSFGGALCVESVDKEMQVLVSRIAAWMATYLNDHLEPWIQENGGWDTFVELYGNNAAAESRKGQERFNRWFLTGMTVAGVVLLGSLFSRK
T4 sequence (Q07820 whole entry): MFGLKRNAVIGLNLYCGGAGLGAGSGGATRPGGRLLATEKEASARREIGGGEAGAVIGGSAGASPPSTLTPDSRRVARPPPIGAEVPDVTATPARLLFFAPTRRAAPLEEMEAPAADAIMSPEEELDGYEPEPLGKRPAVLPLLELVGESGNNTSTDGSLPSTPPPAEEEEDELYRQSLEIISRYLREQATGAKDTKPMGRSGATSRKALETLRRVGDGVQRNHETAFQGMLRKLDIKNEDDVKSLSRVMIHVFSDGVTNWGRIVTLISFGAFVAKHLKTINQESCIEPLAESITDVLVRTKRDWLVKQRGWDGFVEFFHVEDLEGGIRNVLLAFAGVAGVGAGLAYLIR
T2 sequence (P10415 whole entry): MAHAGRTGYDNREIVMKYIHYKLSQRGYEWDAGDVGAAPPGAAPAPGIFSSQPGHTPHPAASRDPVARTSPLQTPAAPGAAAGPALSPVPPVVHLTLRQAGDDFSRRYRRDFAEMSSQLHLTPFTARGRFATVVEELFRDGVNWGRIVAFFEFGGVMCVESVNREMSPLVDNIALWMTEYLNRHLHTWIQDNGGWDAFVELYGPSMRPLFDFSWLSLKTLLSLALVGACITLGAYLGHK

Compound: CC[C@H](C)[C@H](NC(=O)[C@@H](N)Cc1c[nH]c2ccccc12)C(=O)N[C@@H](C)C(=O)N[C@@H](CCC(N)=O)C(=O)N[C@@H](CCC(N)=O)C(=O)N[C@@H](CC(C)C)C(=O)N[C@@H](CCCNC(=N)N)C(=O)N[C@@]1(C)CCCC=CCCC[C@@](C)(C(=O)N[C@@H](Cc2ccccc2)C(=O)N[C@@H](CC(N)=O)C(N)=O)NC(=O)[C@H](CC(=O)O)NC(=O)CNC(=O)[C@H]([C@@H](C)CC)NC1=O (single isomer, unassigned) [stapled E151Q]
IC50 [2]: 10 to 150 µM | cytotoxicity against the four cancer cell lines (in words) [2]: only modest cytotoxicity; also recorded: measurable but modest cytotoxicity | cytotoxicity against the four cancer cell lines (in words) ([2]; listed as pseudo-wild-type Bim peptide): only modest cytotoxicity

Compound: N.N.[Cl][Pt][Cl] [Cisplatin, cisplatin]
IC50 (HeLa): 1.34 µM | IC50 (PC3): 5.6 µM | IC50 (MCF7): 5 µM | IC50 (MDA231): ~10 µM

Compound: CC(C)C[C@H](NC(=O)[C@H](CCC(N)=O)NC(=O)[C@H](C)NC(=O)[C@H](CC(C)C)NC(=O)[C@@H](N)Cc1c[nH]c2ccccc12)C(=O)N[C@@H](CC(C)C)C(=O)N[C@@H](CCCNC(=N)N)C(=O)N[C@@]1(C)CCCC=CCCC[C@@](C)(C(=O)N[C@@H](Cc2ccccc2)C(=O)N[C@@H](CC(N)=O)C(N)=O)NC(=O)[C@H](CC(=O)O)NC(=O)CNC(=O)[C@H](Cc2ccc(O)cc2)NC1=O [X2-8, Trp-Leu-Ala-Gln-Leu-Leu-Arg-Arg-Tyr-Gly-Asp-Glu-Phe-Asn]
Kd (A1): 40.5 nM | IC50 (HeLa cells [1]): 55 µM | IC50 (MDA231 cells): 18.3 µM | IC50 (PC3 cells): 14.9 µM | cytotoxicity toward MCF7 cells (in words) (MCF7 cells): no cytotoxicity

Compound: WIAQELRRIGDEFN [WT, reference compound]
Kd (A1): 26.9 nM

Compound: stapled M2-4: stapled version of M2-4; positions 8 and 12 replaced by olefinic amino acids and crosslinked (WLAQLLR[S5]IGD[S5]IN-NH2; staple 8-12)
cellular uptake (in words) (HeLa cells [3]): taken up | apoptosis / DNA fragmentation by TUNEL (in words) (HeLa cells [4]): DNA fragmentation | apoptosis / DNA fragmentation by TUNEL (in words) (HeLa cells [4]; listed as M2-4 stapled peptide): causes apoptosis

Now from value to compound, other results behind:

increase in apparent affinity toward Bcl-xL (Bcl-xL): 5 fold | IC50 (HeLa cells [1]): 150 µM | IC50 (MDA231 cells): 20 µM | IC50 (PC3 cells): 9.5 µM
Compound: CC[C@H](C)[C@H](NC(=O)[C@@H](N)Cc1c[nH]c2ccccc12)C(=O)N[C@@H](C)C(=O)N[C@@H](CCC(N)=O)C(=O)N[C@@H](CCC(N)=O)C(=O)N[C@@H](CC(C)C)C(=O)N[C@@H](CCCNC(=N)N)C(=O)N[C@@]1(C)CCCC=CCCC[C@@](C)(C(=O)N[C@@H](Cc2ccccc2)C(=O)N[C@@H](CC(N)=O)C(N)=O)NC(=O)[C@H](CC(=O)O)NC(=O)CNC(=O)[C@H]([C@@H](C)CC)NC1=O (single isomer, unassigned) [E151Q]
Kd (A1): 29.6 nM | IC50 (MCF7 cells): 35.7 µM

binding to Bcl-xL (in words) (Bcl-xL): lost the ability to bind | binding to Bcl-2 (in words) (Bcl-2): lost the ability to bind | binding to Bcl-w (in words) (Bcl-w): lost the ability to bind | Kd (Mcl-1; [5]): 5.8 nM | Kd (Mcl-1; [6]): 5.8 nM | Kd (Mcl-1; displayed unstapled 14-mer, read-out: apparent Kd against Mcl-1): 5.8 nM | increase in apparent affinity toward Mcl-1 (Mcl-1; relative to wild-type Bim 14-mer): 6 fold | IC50 (HeLa cells [1]): 6.1 µM | IC50 (MDA231 cells): 3.7 µM | IC50 (PC3 cells): 4.7 µM
Compound: CC[C@H](C)[C@@H]1NC(=O)[C@@](C)(NC(=O)[C@H](CCCNC(=N)N)NC(=O)[C@H](CC(C)C)NC(=O)[C@H](CC(C)C)NC(=O)[C@H](CCC(N)=O)NC(=O)[C@H](C)NC(=O)[C@@H](NC(=O)[C@@H](N)Cc2c[nH]c3ccccc23)C(C)C)CCCC=CCCC[C@@](C)(C(=O)N[C@H](C(=O)N[C@@H](CC(N)=O)C(N)=O)C(C)C)NC(=O)[C@H](CC(=O)O)NC(=O)CNC1=O [M2-2, Trp-Val-Ala-Gln-Leu-Leu-Arg-Arg-Ile-Gly-Asp-Glu-Val-Asn]
Kd (A1): 9.99 nM | affinity improvement toward A1 (A1): 3 fold | IC50 (MCF7 cells): 5.7 µM | IC50 [2]: < 6.2 µM

binding to Bcl-xL (in words) (Bcl-xL): maintaining wild-type affinity | binding to Bcl-2 (in words) (Bcl-2): maintaining wild-type affinity | binding to Bcl-w (in words) (Bcl-w): maintaining wild-type affinity | Kd (Mcl-1; [5]): 9.85 nM | Kd (Mcl-1; [6]): 9.85 nM | decrease in IC50 relative to the pseudo-wild-type peptide (HeLa cells [1]; HeLa cells, stapled peptides): ~150 fold
Compound: CC[C@H](C)[C@@H]1NC(=O)[C@@](C)(NC(=O)[C@H](CCCNC(=N)N)NC(=O)[C@H](CC(C)C)NC(=O)[C@H](CC(C)C)NC(=O)[C@H](CCC(N)=O)NC(=O)[C@H](C)NC(=O)[C@H](CC(C)C)NC(=O)[C@@H](N)Cc2c[nH]c3ccccc23)CCCC=CCCC[C@@](C)(C(=O)N[C@H](C(=O)N[C@@H](CC(N)=O)C(N)=O)[C@@H](C)CC)NC(=O)[C@H](CC(=O)O)NC(=O)CNC1=O [M2-4, Trp-Leu-Ala-Gln-Leu-Leu-Arg-Arg-Ile-Gly-Asp-Glu-Ile-Asn]
Kd (A1): 4.18 nM | affinity improvement toward A1 (A1): 6 fold | IC50 [2]: < 6.2 µM

increase in apparent affinity toward Bcl-xL (Bcl-xL): 25 fold | IC50 (HeLa cells [1]): 51.3 µM | IC50 (MDA231 cells): 10.5 µM | IC50 (PC3 cells): 17.9 µM
Compound: CC(C)C[C@H](NC(=O)[C@H](Cc1c[nH]c2ccccc12)NC(=O)[C@H](CCC(N)=O)NC(=O)[C@H](C)NC(=O)[C@@H](NC(=O)[C@@H](N)Cc1c[nH]c2ccccc12)C(C)C)C(=O)N[C@@H](CCCNC(=N)N)C(=O)N[C@@]1(C)CCCC=CCCC[C@@](C)(C(=O)N[C@@H](Cc2ccccc2)C(=O)N[C@@H](CC(N)=O)C(N)=O)NC(=O)[C@H](CC(=O)O)NC(=O)CNC(=O)[C@H](Cc2c[nH]c3ccccc23)NC1=O [X2-3, Trp-Val-Ala-Gln-Trp-Leu-Arg-Arg-Trp-Gly-Asp-Glu-Phe-Asn]
Kd (A1): 30.2 nM | cytotoxicity toward MCF7 cells (in words) (MCF7 cells): no cytotoxicity
